# Biological target: HPK1 (Homo sapiens (Human), UniProt Q92918)
# Assay: HPK1 kinase activity inhibition test (ADP-Glo, luminescence)
# Format: biochemical
# Settings: HPK1 5 nM, ATP 2 μM, read-out: IC50, inhibitory effects of compounds on HPK1 kinase activity
# Protocol: 1. HPK1 Kinase Activity Inhibition Test
# The kinase activity of HPK1 is manifested as activity of autophosphorylation and phosphorylation of downstream substrates. In the process of autophosphorylation, additional substrates are not required, and ATP is consumed to generate ADP. The amount of the product was measured by ADP-Glo reagent and luminescence method to reflect kinase activity.
# Test compounds: compounds prepared in the examples of this application.
# Prepare compound stock solution: dissolve the compound to be tested in 100% DMSO to make a 10 mM stock solution;
# Prepare 4× Kinase Reaction Buffer:
# Prepare 2×HPK1 Kinase Solution:
# Dilute the stock solution of the compound to be tested by 5 times with […], make a 4-fold equal dilution in a 96-well dilution plate, add 1 μL of the compound to 49 µL of kinase reaction buffer, and shake on a microplate shaker for 20 minutes. Transfer 2 μL of […] kinase solution to 384 reaction plate, add 1 μL of the test compound to the 384 reaction plate (Greiner, 784075), centrifuge for 1 minute (1000 rpm/min), incubate at 25° C. for 10 minutes. Transfer […] of the 4×ATP mixture to a 384 reaction plate, centrifuge for 1 minute (1000 rpm/mm), and incubate at 25° C. for 60 minutes. In the reaction system, the final concentration of DMSO was […]. Transfer 4 μL of ADP-Glo to a 384 reaction plate, centrifuge for 1 minute (1000 rpm/min), and incubate at 25° C. for 40 minutes. Transfer 8 μL detection solution to a 384 reaction plate, centrifuge for 1 minute (1000 rpm/min), and incubate at 25° C. for 40 minutes. The […] signal was read using a Biotek multi-function plate reader, and the […] (half inhibitory concentration) of the compound was obtained using a four-coefficient nonlinear fitting formula.
# Sequence of HPK1 (Q92918 whole entry): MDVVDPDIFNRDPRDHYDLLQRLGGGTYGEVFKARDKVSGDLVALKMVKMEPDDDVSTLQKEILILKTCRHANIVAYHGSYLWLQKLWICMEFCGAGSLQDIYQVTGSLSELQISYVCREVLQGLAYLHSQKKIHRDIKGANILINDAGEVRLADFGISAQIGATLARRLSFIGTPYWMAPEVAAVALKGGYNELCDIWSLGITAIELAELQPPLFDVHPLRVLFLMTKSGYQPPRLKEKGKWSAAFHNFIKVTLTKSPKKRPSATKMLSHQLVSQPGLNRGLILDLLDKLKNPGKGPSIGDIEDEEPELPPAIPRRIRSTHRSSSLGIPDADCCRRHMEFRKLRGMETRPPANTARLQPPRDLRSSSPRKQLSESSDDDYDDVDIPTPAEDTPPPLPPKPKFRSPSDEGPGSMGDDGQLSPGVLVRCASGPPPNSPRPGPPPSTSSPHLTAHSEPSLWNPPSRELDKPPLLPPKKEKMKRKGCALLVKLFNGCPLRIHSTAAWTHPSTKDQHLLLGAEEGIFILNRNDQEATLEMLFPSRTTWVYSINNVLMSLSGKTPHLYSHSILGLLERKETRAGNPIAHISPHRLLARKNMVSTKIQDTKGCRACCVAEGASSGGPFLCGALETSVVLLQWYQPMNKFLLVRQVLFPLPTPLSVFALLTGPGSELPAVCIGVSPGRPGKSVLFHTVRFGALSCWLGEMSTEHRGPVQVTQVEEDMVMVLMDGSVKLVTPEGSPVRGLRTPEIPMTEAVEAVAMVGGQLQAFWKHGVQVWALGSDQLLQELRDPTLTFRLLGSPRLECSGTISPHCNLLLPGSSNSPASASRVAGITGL
row,IC50 [nM],SMILES
1,≤ 50,COc1cccc(F)c1-n1nc2c(-c3ccc(N4CCN(C)CC4)nc3)n[nH]c2cc1=O [Compound 10]
2,500 to 2000,"Cc1cccc(F)c1-n1nc2c(-c3ccc(N4CCN(C)CC4=O)cc3)n[nH]c2cc1=O [Compound 12, 5-(2-fluoro-6-methylphenyl)-3-(4-(4-methyl-2-oxopiperazin-1-yl)phenyl)-1H-pyrazolo[4,3-c]pyridazin-6(5H)-one]"
3,500 to 2000,"Cc1cccc(F)c1-n1nc2c(-c3ccc(CN4CCN(C)CC4=O)cc3)n[nH]c2cc1=O [Compound 15, 5-(2-fluoro-6-methylphenyl)-3-(4-((4-methyl-2-oxo-piperazin-1-yl)methyl)phenyl)-1H-pyrazolo[4,3-c]pyridazin-6(5H)-one]"
4,500 to 2000,"Cc1cccc(F)c1-n1nc2c(-c3cnn(C)c3)n[nH]c2cc1=O [Compound 17, 5-(2-fluoro-6-methylphenyl)-3-(1-methyl-1H-pyrazol-4-yl)-1H-pyrazolo[4,3-c]pyridazin-6(5H)-one]"
5,500 to 2000,"Cc1cccc(F)c1-n1nc2c(-c3cnn(C4CCN(C)CC4)c3)n[nH]c2cc1=O [Compound 19, 5-(2-fluoro-6-methylphenyl)-3-(1-(1-methylpiperidin-4-yl)-1H-pyrazol-4-yl)-1H-pyrazolo[4,3-c]pyridazin-6(5H)-one]"
6,50 to 500,"Cc1cccc(F)c1-n1nc2c(-c3cnc(N4CCOCC4)nc3)n[nH]c2cc1=O [Compound 32, 5-(2-fluoro-6-methylphenyl)-3-(2-morpholinylpyrimidin-5-yl)-1H-pyrazolo[4,3-c]pyridazin-6(5H)-one]"
7,50 to 500,"Cc1cc(Cl)cc(F)c1-n1nc2c(-c3ccc(N4CCN(C)CC4)cc3)n[nH]c2cc1=O [Compound 78, 5-(4-chloro-2-fluoro-6-methylphenyl)-3-(4-(4-methylpiperazin-1-yl)phenyl)-1H-pyrazolo[4,3-c]pyridazin-6(5H)-one]"
8,50 to 500,Cc1cccc(F)c1-n1nc2c(-c3ccc(N4CCN(CC(F)F)CC4)cc3)n[nH]c2cc1=O [Compound 84]
9,50 to 500,"Cc1cccc(F)c1-n1nc2c(-c3ccc(N4CCN(C)CC4)c(CN(C)C)c3)n[nH]c2cc1=O [Compound 95, 3-(3-((dimethylamino)methyl)-4-(4-methylpiperazin-1-yl)phenyl)-5-(2-fluoro-6-methylphenyl)-1H-pyrazolo[4,3-c]pyridazin-6(5H)-one]"
10,50 to 500,"CNCc1cc(-c2n[nH]c3cc(=O)n(-c4c(C)cccc4F)nc23)ccc1N1CCN(C)CC1 [Compound 96, 3-(3-((methylamino)methyl)-4-(4-methylpiperazin-1-yl)phenyl)-5-(2-fluoro-6-methylphenyl)-1H-pyrazolo[4,3-c]pyridazin-6(5H)-one]"
11,50 to 500,"COc1cccc(C)c1-n1nc2c(-c3ccc(N4CCN(C)CC4)nc3)n[nH]c2cc1=O [Compound 97, 5-(2-methoxy-6-methylphenyl)-3-(6-(4-methylpiperazin-1-yl)pyrid-3-yl)-1H-pyrazolo[4,3-c]pyridazin-6(5H)-one]"
12,≤ 50,"CCN1CCN(c2ccc(-c3n[nH]c4cc(=O)n(-c5c(C)cccc5F)nc34)cn2)CC1 [Compound 101, 3-(6-(4-ethylpiperazin-1-yl)pyrid-3-yl)-5-(2-fluoro-6-methylphenyl)-1H-pyrazolo[4,3-c]pyridazin-6(5H)-one]"
13,50 to 500,"CC(=O)N1CCN(c2ccc(-c3n[nH]c4cc(=O)n(-c5c(C)cccc5F)nc34)cn2)CC1 [Compound 102, 3-(6-(4-acetylpiperazin-1-yl)pyrid-3-yl)-5-(2-fluoro-6-methylphenyl)-1H-pyrazolo[4,3-c]pyridazin-6(5H)-one]"
14,50 to 500,"Cc1cccc(F)c1-n1nc2c(-c3ccc(N4CCS(=O)(=O)CC4)nc3)n[nH]c2cc1=O [Compound 104, 3-(6-(1,1-dioxidothiomorpholino)pyrid-3-yl)-5-(2-fluoro-6-methylphenyl)-1H-pyrazolo[4,3-c]pyridazin-6(5H)-one]"
15,50 to 500,"CCc1cccc(F)c1-n1nc2c(-c3cnc(N4CCN(C)CC4)nc3)n[nH]c2cc1=O [Compound 110, 5-(2-ethyl-6-fluorophenyl)-3-(2-(4-methylpiperazin-1-yl)pyrimidin-5-yl)-1H-pyrazolo[4,3-c]pyridazin-6(5H)-one]"
16,≤ 50,"Cc1cccc(F)c1-n1nc2c(-c3ccc(N4CCN5C(=O)OCC5C4)cc3)n[nH]c2cc1=O (stereo not shown) [Compound 122, 7-(4-(5-(2-fluoro-6-methylphenyl)-6-oxo-5,6-dihydro-1H-pyrazolo[4,3-c]pyridazin-3-yl)phenyl)tetrahydro-1H-oxazolo[3,4-a]pyrazin-3(5H)-one]"
17,50 to 500,"Cc1cccc(F)c1-n1nc2c(-c3ccc(N4CCN(C)C(C(=O)O)C4)cc3)n[nH]c2cc1=O (stereo not shown) [Compound 131, 4-(4-(5-(2-fluoro-6-methylphenyl)-6-oxo-5,6-dihydro-1H-pyrazolo[4,3-c]pyridazin-3-yl)phenyl)-1-methylpiperazin-2-carboxylic acid]"

# The next lines start with the compound.
row,SMILES,IC50 [nM]
1,"COc1ccc(-n2nc3c(-c4ccc(C5=CCN(C)CC5)cc4)n[nH]c3cc2=O)c(OC)c1 [Compound 4, 5-(2,4-dimethoxyphenyl)-3-(4-(1-methyl-1,2,3,6-tetrahydropyridin-4-yl)phenyl)-1H-pyrazolo[4,3-c]pyridazin-6(5H)-one]",≤ 50
2,"COc1cccc(F)c1-n1nc2c(-c3ccc(C4CCN(C)CC4)cc3)n[nH]c2cc1=O [Compound 24, 5-(2-fluoro-6-methoxyphenyl)-3-(4-(1-methylpiperidin-4-yl)phenyl)-1H-pyrazolo[4,3-c]pyridazin-6(5H)-one]",≤ 50
3,"COc1ccc(-n2nc3c(-c4ccc(C5CCN(C)CC5)cc4)n[nH]c3cc2=O)c(OC)c1 [Compound 26, 5-(2,4-dimethoxyphenyl)-3-(4-(1-methylpiperidin-4-yl)phenyl)-1H-pyrazolo[4,3-c]pyridazin-6(5H)-one]",500 to 2000
4,"Cc1ccncc1-n1nc2c(-c3ccc(N4CCN(C)CC4)cc3)n[nH]c2cc1=O [Compound 47, 3-(4-(4-methylpiperazin-1-yl)phenyl)-5-(4-methylpyrid-3-yl)-1H-pyrazolo[4,3-c]pyridazin-6(5H)-one]",500 to 2000
5,"COc1ccncc1-n1nc2c(-c3ccc(N4CCN(C)CC4)cc3)n[nH]c2cc1=O [Compound 48, 5-(4-methoxypyrid-3-yl)-3-(4-(4-methylpiperazin-1-yl)phenyl)-1H-pyrazolo[4,3-c]pyridazin-6(5H)-one]",50 to 500
6,"Cc1cccc(F)c1-n1nc2c(-c3ccc(N4CCN(C)CC4)cc3)n[nH]c2c(C)c1=O [Compound 55, 5-(2-fluoro-6-methylphenyl)-7-methyl-3-(4-(4-methylpiperazin-1-yl)phenyl)-1H-pyrazolo[4,3-c]pyridazin-6(5H)-one]",50 to 500
7,"COc1cccc(F)c1-n1nc2c(-c3ccc4c(c3)CCN(C)C4)n[nH]c2cc1=O [Compound 72, 5-(2-fluoro-6-methoxyphenyl)-3-(2-methyl-1,2,3,4-tetrahydroisoquinolin-6-yl)-1H-pyrazolo[4,3-c]pyridazin-6(5H)-one]",50 to 500
8,"CN1CCN(c2ccc(-c3n[nH]c4cc(=O)n(-c5cccc6c5COC6)nc34)cc2)CC1 [Compound 75, 5-(1,3-dihydroisobenzofuran-4-yl)-3-(4-(4-methylpiperazin-1-yl)phenyl)-1H-pyrazolo[4,3-c]pyridazin-6(5H)-one]",500 to 2000
9,"Cc1cccc(F)c1-n1nc2c(-c3ccc(N4CC5CC(C4)N5C)cc3)n[nH]c2cc1=O [Compound 91, 5-(2-fluoro-6-methylphenyl)-3-(4-(6-methyl-3,6-diazabicyclo[3.1.1]heptan-3-yl)phenyl)-1H-pyrazolo[4,3-c]pyridazin-6(5H)-one]",≤ 50
10,"COc1cccc(F)c1-n1nc2c(-c3ccc(N4CCOCC4)cc3)n[nH]c2cc1=O [Compound 92, 5-(2-fluoro-6-methoxyphenyl)-3-(4-morpholinophenyl)-1H-pyrazolo[4,3-c]pyridazin-6(5H)-one]",≤ 50
11,"COc1cccc(F)c1-n1nc2c(-c3ccc(N4CCN5C(=O)OCC5C4)cc3)n[nH]c2cc1=O (stereo not shown) [Compound 123, 7-(4-(5-(2-fluoro-6-methoxyphenyl)-6-oxo-5,6-dihydro-1H-pyrazolo[4,3-c]pyridazin-3-yl)phenyl)tetrahydro-1H-oxazolo[3,4-a]pyrazin-3(5H)-one]",≤ 50
12,"COc1cccc(F)c1-n1nc2c(-c3ccc(N4CCN5C(=O)CN(C)CC5C4)cc3)n[nH]c2cc1=O (stereo not shown) [Compound 132, 8-(4-(5-(2-fluoro-6-methoxyphenyl)-6-oxo-5,6-dihydro-1H-pyrazolo[4,3-c]pyridazin-3-yl)phenyl)-2-methylhexahydro-1H-pyrazino[1,2-a]pyrazin-4(6H)-one]",≤ 50
13,COc1cc(C)c(-n2nc3c(-c4ccc(N5CCN(C)CC5)cc4)n[nH]c3cc2=O)cn1 [Compound 149],500 to 2000
14,"Cc1ccncc1-n1nc2c(-c3ccc(C4=CCN(C)CC4)cc3)n[nH]c2cc1=O [Compound 150, 3-(4-(1-methyl-1,2,3,6-tetrahydropyridin-4-yl)phenyl)-5-(4-methylpyrid-3-yl)-1H-pyrazolo[4,3-c]pyridazin-6(5H)-one]",500 to 2000
